Results reported in patent publication US6552045B2 (Sepracor Inc., priority 1999, dated 2003).

What was measured:
[1] = co-administration with ketoconazole; inhibition of the metabolic elimination of cisapride; cited from earlier work
[2] = target: T1, 5-HT3 receptor subtypes derived from N1E-115 cells (Mus musculus, UniProt P23979); experiment: Receptor binding, 5-HT3 receptor (radioligand binding, Cerep); conditions: ratio of IC50 at 5-HT3 to IC50 at 5-HT4
T1 construct: 5-HT3 receptor subtypes derived from N1E-115 cells; host or cells: N1E-115 cells
T1 sequence (P23979 24-489): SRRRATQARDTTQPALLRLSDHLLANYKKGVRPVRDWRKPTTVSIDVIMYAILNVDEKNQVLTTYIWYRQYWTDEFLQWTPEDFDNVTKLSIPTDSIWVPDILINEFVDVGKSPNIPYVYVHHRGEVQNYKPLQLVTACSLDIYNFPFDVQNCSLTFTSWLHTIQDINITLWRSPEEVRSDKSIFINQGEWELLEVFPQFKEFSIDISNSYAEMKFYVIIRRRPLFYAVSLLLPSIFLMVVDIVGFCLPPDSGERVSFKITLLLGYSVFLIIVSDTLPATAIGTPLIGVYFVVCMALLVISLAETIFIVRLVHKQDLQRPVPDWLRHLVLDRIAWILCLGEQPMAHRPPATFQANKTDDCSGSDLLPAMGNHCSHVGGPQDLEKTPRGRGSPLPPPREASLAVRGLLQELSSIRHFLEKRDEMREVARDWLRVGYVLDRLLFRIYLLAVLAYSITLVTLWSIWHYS
Method: Receptor Binding 5-HT3 Receptor
Following incubation with the appropriate ligands, the preparations were rapidly filtered under vacuum through GF/B glass fiber filters and washed with ice-old buffer using a Brandel or Packard cell harvester.
Specific radioligand binding to the receptor was defined as the difference between total binding and nonspecific binding determined in the presence of an excess of unlabeled ligand. Results were expressed as a percent inhibition of specific binding obtained in the presence of the compounds.

Row | SMILES | increase of the steady-state plasma levels [1] [fold] | 5-HT3/5-HT4 Ratio [2]
1 | COc1cc(N)c(Cl)cc1C(=O)N[C@H]1CCN(CCCOc2ccc(F)cc2)C[C@H]1OC (racemic) [(±) Cisapride, cis-4-amino-5-chloro-N-[1-[3-(4-fluorophenoxy)propyl]-3-methoxy-4-piperidinyl]-2-methoxybenzamide] | 8 | –
2 | COc1cc(N)c(Cl)cc1C(=O)NC1CCNCC1OC (racemic) [(±) Norcisapride, 4-amino-5-chloro-N-(3-methoxy-4-piperidinyl)-2-methoxybenzamide] | – | 0.012
3 | COc1cc(N)c(Cl)cc1C(=O)NC1CCNCC1OC (single isomer, unassigned; (+)) [(+) Norcisapride] | – | 0.014
4 | COc1cc(N)c(Cl)cc1C(=O)NC1CCNCC1OC (single isomer, unassigned; (-)) [(−) Norcisapride] | – | 0.023
